Results published in US20200207782A1, “CHEMICALLY ACTIVATED WATER-SOLUBLE PRODRUG” (SUMITOMO DAINIPPON PHARMA CO., LTD, priority 2017, published 2020).
Values after ≈ are worked out from the molar mass of the structure shown. Values joined by “and” are separate entries in the source; they are usually repeats but may differ in a detail not shown here. Equal values may be shown once. Where a name gives a salt, the structure may show the parent alone.

Experiments:
physchem = conditions: thermodynamic from solid; for solubility at 24 h: pH 2, aqueous buffer
Method: The solubility of the water-soluble prodrugs described in the Examples and the Reference Examples was measured. […] The filtrate was measured by HPLC.

[1] = Solution stability test (residual ratio and generation of active form in buffers of pH 2.0 to 9.0); type: physicochemical; set-up: Rate of generation of active form after 24 hours in buffer with pH of 7.4: tested at 25 µM; conditions: for Residual ratio / Rate of generation of active form after 24 hours in buffer with pH of 7.4: 25° C.; for Residual ratio: 25 umol/L; for Degradation behaviour in buffers (in words): pH 2.0 to 9.0; for Rate of generation of active form after 24 hours in buffer with pH of 7.4: pH 7.4 buffer
Method: The test compounds were incubated at 25° C. at a concentration of 25 umol/L in a buffer prepared to have a pH of 2.0, 3.0, 5.0, 7.4, and 9.0. The compounds were measured by HPLC after 0, 3, 6, 9, 12, and 24 hours.
The buffers used at each pH are the following. • pH 2.0: 50 mmol/L glycine buffer • pH 3.0: 50 mmol/L citrate buffer • pH 5.0: 50 mmol/L citrate buffer • pH 7.4: 50 mmol/L phosphate buffer • pH 9.0: 50 mmol/L glycine buffer
The measurement conditions for HPLC are the following.
The yield of the Example and Reference Example compounds and active forms is calculated with each of the peak area of the Example and Reference Example compounds at 0 minutes and the peak area upon dissolution of the corresponding active form at 100 umol/L as 100%. The yield is denoted in terms of %

[2] = Evaluation of conversion rate to active form in human plasma; type: in vitro ADME; conditions: Human plasma, incubation time 120 minutes
Method: (§1) The ratio of decrease of a test compound and the conversion ratio to a corresponding active form (2-acetylthieno[3,2-f][1]benzofuran-4,8-dione) in human plasma and CD1 mouse plasma were measured for Example 1.
(§2) The test compounds were incubated at 37° C. at a concentration of 10 umol/L in human plasma (cat. no. 12250210, Cosmo Bio) and CD1 mouse plasma (cat. no. AP3054, KAC) and retrieved for a given time (0, 5, 10, 30, 60, and 120 minutes) and deproteinized, then analyzed by LC-MS. Acetonitrile comprising each of 10% quantity of 1 mol/L hydrochloric acid, 1% quantity of 46% citric acid, and phenytoin as an internal standard was used for deproteinization.
(§3) LC-MS measurement conditions were the following.
(§4) The yield of the Examples compounds and active form 2-acetylthieno[3,2-f][1]benzofuran-4,8-dione is calculated with each of the peak area of the Example compounds at 0 minutes and the peak area upon dissolution of 2-acetylthieno[3,2-f][1]benzofuran-4,8-dione at 100 umol/L as 100%. The yield is denoted in terms of %.
(§5) In the same manner as Example 1, the conversion ratio to an active form was measured for each of the various test compounds in human plasma and CD1 mouse plasma, with incubation time as 120 minutes. It was confirmed that the series of compounds of the invention was converted to an active form with a small interspecies difference in human plasma and CD1 mouse plasma.
(§6) The yield of the active forms is calculated with the each peak area upon dissolution of the generated active form at 100 umol/L as 100%. The yield is denoted in terms of %.

[3] = Evaluation of conversion rate to active form in CD1 mouse plasma; type: in vitro ADME; conditions: CD1 mouse plasma, incubation time 120 minutes
Method: as §1, §2, §3, §4, §5, §6

In the case of `CC(=O)c1cc2c(o1)C(=O)c1cccc(O)c1C2=O` [2-acetyl-5-hydroxynaphtho[2,3-b]furan-4,9-dione, reference compound], the solubility (physchem; 50 mmol/L glycine buffer, pH 3, aqueous buffer) is reported as 1 µg/mL (≈ 3.9 µM).
`CC1=CC(=O)c2ccccc2C1=O` [2-methylnaphthalen-1,4-dione, reference compound] gave a solubility at 24 h (physchem; 50 mmol/L glycine buffer) of 97 µg/mL (≈ 563 µM).
In the case of `O=C1C(=O)C(c2ccccc2)=C2OCOC2=C1c1ccccc1` [4,7-diphenyl-1,3-benzodioxol-5,6-dione, reference compound], the solubility at 24 h (physchem; 50 mmol/L glycine buffer) is reported as 0.3 µg/mL (≈ 0.986 µM).
Work on `Cc1cc(OC(=O)NCCNCC(=O)O)c2ccccc2c1OC(=O)NCCNCC(=O)O` [Example 2, 2,2′-[(2-Methylnaphthalene-1,4-diyl)bis(oxycarbonyliminoethane-2,1-diylimino)]diacetic acid dihydrochloride] yielded a Residual ratio ([1]; pH2.0 buffer, 0 hr) of 100%, a Residual ratio ([1]; pH2.0 buffer, 3 hr) of 100% and a Residual ratio ([1]; pH2.0 buffer, 6 hr) of 99.8%. For the same compound, the Residual ratio ([1]; pH2.0 buffer, 9 hr) was 99.7%, the Residual ratio ([1]; pH2.0 buffer, 12 hr) was 102% and the Residual ratio ([1]; pH2.0 buffer, 24 hr) was 100%. For the same compound, the “Degradation behaviour in buffers (in words)” value (from here on “Degradation behaviour”) [1] was “pH dependent and chemical degradation progressed”, the Residual ratio ([1]; pH3.0 buffer, 0 hr) was 101% and the Residual ratio ([1]; pH3.0 buffer, 3 hr) was 101%. For the same compound, the Residual ratio ([1]; pH3.0 buffer, 6 hr) was 101%, the Residual ratio ([1]; pH3.0 buffer, 9 hr) was 100% and the Residual ratio ([1]; pH3.0 buffer, 12 hr) was 100%. The Residual ratio ([1]; pH3.0 buffer, 24 hr) was 101%, the Residual ratio ([1]; pH5.0 buffer, 0 hr) was 101% and the Residual ratio ([1]; pH5.0 buffer, 3 hr) was 101%. For the same compound, the Residual ratio ([1]; pH5.0 buffer, 6 hr) was 102%, the Residual ratio ([1]; pH5.0 buffer, 9 hr) was 102% and the Residual ratio ([1]; pH5.0 buffer, 12 hr) was 100%. It also gave a Residual ratio ([1]; pH5.0 buffer, 24 hr) of 102%, a Residual ratio ([1]; pH7.4 buffer, 0 hr) of 102% and a Residual ratio ([1]; pH7.4 buffer, 3 hr) of 50.7%. The Residual ratio ([1]; pH7.4 buffer, 6 hr) was 32.0%, the Residual ratio ([1]; pH7.4 buffer, 9 hr) was 16.2% and the Residual ratio ([1]; pH7.4 buffer, 12 hr, dihydrochloride) was 0%. The Residual ratio ([1]; pH7.4 buffer, 24 hr) was 0.0%, the “Rate of generation of active form after 24 hours in buffer with pH of 7.4” value (“Rate of generation of active form” for short) [1] was 7% and the Residual ratio ([1]; pH9.0 buffer, 0 hr) was 44.5%. For the same compound, the Residual ratio ([1]; pH9.0 buffer, 3 hr, dihydrochloride) was 0%, the Residual ratio ([1]; pH9.0 buffer, 6 hr) was 0.0% and the Residual ratio ([1]; pH9.0 buffer, 9 hr) was 0.0%. For the same compound, the Residual ratio ([1]; pH9.0 buffer, 12 hr) was 0.0%, the Residual ratio ([1]; pH9.0 buffer, 24 hr) was 0.0% and the “Stability in solution (in words)” value ([1]; pH of 2.0, 25° C.) was “very stable”. The “Stability in solution (in words)” value ([1]; pH of 3.0, 25° C.) was “very stable”, the “Stability in solution (in words)” value ([1]; pH of 5.0, 25° C.) was “very stable” and the solubility at 24 h (physchem) was greater than 10000 µg/mL.
With `CC1(C)CCc2c(OC(=O)NCCNCC(=O)O)c(OC(=O)NCCNCC(=O)O)c3ccccc3c2O1` [Example 4, 2,2′-[(2,2-Dimethyl-3,4-dihydro-2H-benzo[H]chromene-5,6-diyl)bis(oxycarbonyliminoethane-2,1-diylimino)]diacetic acid dihydrochloride] the “Degradation behaviour” value [1] was “pH dependent and chemical degradation progressed”, the “Stability in solution (in words)” value ([1]; pH of 2.0, 25° C.) was “sufficient stability” and the “Stability in solution (in words)” value ([1]; pH of 3.0, 25° C.) was “sufficient stability”. The solubility at 24 h (physchem) was greater than 10000 µg/mL.
For `NCCCNC(=O)Oc1c(OC(=O)NCCCN)c(-c2ccccc2)c2c(c1-c1ccccc1)OCO2` [Example 6, 4,7-Diphenyl-1,3-benzodioxole-5,6-diyl bis[(3-aminopropyl)carbamate]dihydrochloride], the Residual ratio ([1]; pH2.0 buffer, 0 hr) was 100%, the Residual ratio ([1]; pH2.0 buffer, 3 hr) was 100% and the Residual ratio ([1]; pH2.0 buffer, 6 hr) was 100%. The Residual ratio ([1]; pH2.0 buffer, 9 hr) was 100%, the Residual ratio ([1]; pH2.0 buffer, 12 hr) was 100% and the Residual ratio ([1]; pH2.0 buffer, 24 hr) was 100%. The “Degradation behaviour” value [1] was “pH dependent and chemical degradation progressed”, the Residual ratio ([1]; pH3.0 buffer, 0 hr) was 100% and the Residual ratio ([1]; pH3.0 buffer, 3 hr) was 100%. The Residual ratio ([1]; pH3.0 buffer, 6 hr) was 100%, the Residual ratio ([1]; pH3.0 buffer, 9 hr) was 100% and the Residual ratio ([1]; pH3.0 buffer, 12 hr) was 100%. The Residual ratio ([1]; pH3.0 buffer, 24 hr) was 100%, the Residual ratio ([1]; pH5.0 buffer, 0 hr) was 100% and the Residual ratio ([1]; pH5.0 buffer, 3 hr) was 100%. The Residual ratio ([1]; pH5.0 buffer, 6 hr) was 99.8%, the Residual ratio ([1]; pH5.0 buffer, 9 hr) was 99.6% and the Residual ratio ([1]; pH5.0 buffer, 12 hr) was 99.5%. For the same compound, the Residual ratio ([1]; pH5.0 buffer, 24 hr) was 99.5%, the Residual ratio ([1]; pH7.4 buffer, 0 hr) was 96.8% and the Residual ratio ([1]; pH7.4 buffer, 3 hr) was 65.8%. For the same compound, the Residual ratio ([1]; pH7.4 buffer, 6 hr) was 45.2%, the Residual ratio ([1]; pH7.4 buffer, 9 hr) was 31.4% and the Residual ratio ([1]; pH7.4 buffer, 12 hr) was 22.2%. For the same compound, the Residual ratio ([1]; pH7.4 buffer, 24 hr) was 17% and 16.5%, the Residual ratio ([1]; pH9.0 buffer, 0 hr) was 10.4% and the Residual ratio ([1]; pH9.0 buffer, 3 hr) was 0.4%. The Residual ratio ([1]; pH9.0 buffer, 6 hr) was 0.7%, the Residual ratio ([1]; pH9.0 buffer, 9 hr) was 0.7% and the Residual ratio ([1]; pH9.0 buffer, 12 hr) was 0.9%. The Residual ratio ([1]; pH9.0 buffer, 24 hr) was 0.9%, the “Stability in solution (in words)” value ([1]; pH of 2.0, 25° C.) was “very stable” and the “Stability in solution (in words)” value ([1]; pH of 3.0, 25° C.) was “very stable”. For the same compound, the “Stability in solution (in words)” value ([1]; pH of 5.0, 25° C.) was “very stable” and the solubility at 24 h (physchem) was greater than 10000 µg/mL.
With `CN1CC[C@H](c2c(O)cc(OC(=O)N(C)CCN)c3c(=O)cc(-c4ccccc4Cl)oc23)[C@H](O)C1` [Example 9, 2-(2-chlorophenyl)-7-hydroxy-8-[(3S,4R)-3-hydroxy-1-methylpiperidin-4-yl]-4-oxo-4H-chromen-5-yl (2-aminoethyl)methylcarbamate ditrifluoroacetate] the “Degradation behaviour” value [1] was “pH dependent and chemical degradation progressed”, the “Rate of generation of active form” value [1] was 23% and the “Stability in solution (in words)” value ([1]; pH of 2.0, 25° C.) was “stable”. For the same compound, the “Stability in solution (in words)” value ([1]; pH of 3.0, 25° C.) was “stable” and the “Stability in solution (in words)” value ([1]; pH of 5.0, 25° C.) was “stable”.
With `CNCCN(C)C(=O)Oc1cc(O)c2c(=O)cc(-c3ccccc3Cl)oc2c1[C@H]1CCN(C)C[C@H]1O` [Example 10, 2-(2-Chlorophenyl)-5-hydroxy-8-[(3S,4R)-3-hydroxy-1-methylpiperidin-4-yl]-4-oxo-4H-chromen-7-yl methyl[2-(methylamino)ethyl]carbamate ditrifluoroacetate] the “Degradation behaviour” value [1] was “pH dependent and chemical degradation progressed”, the “Rate of generation of active form” value [1] was 96% and the “Stability in solution (in words)” value ([1]; pH of 2.0, 25° C.) was “sufficient stability”. The “Stability in solution (in words)” value ([1]; pH of 3.0, 25° C.) was “sufficient stability”.
For `CNCCN(C)C(=O)Oc1cc(O)c([C@H]2CCN(C)C[C@H]2O)c2oc(-c3ccccc3Cl)cc(=O)c12` [Example 11, 2-(2-Chlorophenyl)-7-hydroxy-8-[(3S,4R)-3-hydroxy-1-methylpiperidin-4-yl]-4-oxo-4H-chromen-5-yl methyl[2-(methylamino)ethyl]carbamate ditrifluoroacetate], the “Degradation behaviour” value [1] was “pH dependent and chemical degradation progressed”, the “Stability in solution (in words)” value ([1]; pH of 2.0, 25° C.) was “stable” and the “Stability in solution (in words)” value ([1]; pH of 3.0, 25° C.) was “stable”. For the same compound, the “Stability in solution (in words)” value ([1]; pH of 5.0, 25° C.) was “stable”.
In the case of `COC(=O)[C@H](CCNC(=O)Oc1c(C)c(CCCCCCCCCCOC(=O)OC(C)(C)C)c(OC(=O)NCC[C@H](NC(=O)OC(C)(C)C)C(=O)OC)c(OC)c1OC)NC(=O)OC(C)(C)C` [Reference Example 11, Dimethyl (2S,2′S)-4,4′-[(2-{10-[(tert-butoxycarbonyl)oxy]decayl}-5,6-dimethoxy-3-methylbenzene-1,4-diyl)bis(oxycarbonylimino)]bis{2-[(tert-butoxycarbonyl)amino]butanoate}], the “Rate of generation of active form” value [1] is reported as 91%, the “Conversion ratio to an active form (Measurement value %)” value [2] is reported as 100% and the “Conversion ratio to an active form (Measurement value %)” value [3] is reported as 100%.
